These results are taken from patent US9023318B2, “Compounds with matrix-metalloproteinase inhibitory activity and imaging agents thereof” (Siemens Medical Solutions USA, Inc., priority 2011, dated 2015).

For data set [1], the target named is recombinant MMP-8 (Homo sapiens, UniProt P22894). The data set is described as follows: MMP compound screening, recombinant MMP-8 (SensoLyte 390 Generic MMP Activity Kit). In kind it is biochemical. To be noted: read-out: inhibition of MMP-8 activity, % of total activity; for inhibition at 0.1 µM: 100 nM (0.1 uM) compound; for inhibition at 0.01 µM: 10 nM compound. The method, then: (§1) The activities were determined using Fluorimetric SensoLyte® 390 Generic MMP Activity Kit from Anaspec (cat #72202). This assay kit can detect the activity of several MMPs such as MMP-1, 2, 7, 8, 9, 13, 14, 15, 16 and 24.
(§2) For screening MMP compounds, activated 2 nM of recombinant MMP-2, 8, 9 or 13 are pre-incubated with MMP compound (inhibitor) for 30 min at 37° C. The substrate is added and the inhibition of MMP activity is expressed as % of total activity (without the inhibitor incubation).

For data set [2], the target named is recombinant MMP-13 (Homo sapiens, UniProt P45452). The data set can be described thus: MMP compound screening, recombinant MMP-13 (SensoLyte 390 Generic MMP Activity Kit). The data set is classed as biochemical. As to conditions: read-out: inhibition of MMP-13 activity, % of total activity; for inhibition at 0.1 µM: 100 nM (0.1 uM) compound; for inhibition at 0.01 µM: 10 nM compound. On the procedure:
as §1, §2

Data set [3] has as its target T1, recombinant MMP-2 (Homo sapiens, UniProt P08253).
T1 sequence (P08253 110-660): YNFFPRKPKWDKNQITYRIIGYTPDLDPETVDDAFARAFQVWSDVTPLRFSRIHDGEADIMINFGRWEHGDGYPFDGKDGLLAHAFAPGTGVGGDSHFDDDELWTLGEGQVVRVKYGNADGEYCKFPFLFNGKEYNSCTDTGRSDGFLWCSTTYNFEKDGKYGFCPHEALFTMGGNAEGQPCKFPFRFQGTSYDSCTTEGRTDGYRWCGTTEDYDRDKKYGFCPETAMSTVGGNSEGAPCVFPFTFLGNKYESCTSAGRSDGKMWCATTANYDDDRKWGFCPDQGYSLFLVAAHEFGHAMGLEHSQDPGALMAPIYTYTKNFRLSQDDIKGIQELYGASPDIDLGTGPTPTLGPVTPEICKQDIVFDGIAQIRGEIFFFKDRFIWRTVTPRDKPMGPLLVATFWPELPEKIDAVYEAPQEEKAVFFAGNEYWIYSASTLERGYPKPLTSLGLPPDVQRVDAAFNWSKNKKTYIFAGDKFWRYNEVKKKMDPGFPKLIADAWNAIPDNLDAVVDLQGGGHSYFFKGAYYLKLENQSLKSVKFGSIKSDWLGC
The data set can be described thus: MMP compound screening, recombinant MMP-2 (SensoLyte 390 Generic MMP Activity Kit). In kind it is biochemical. To be noted: for IC50: 2 nM enzyme, 30 min pre-incubation at 37° C.; for inhibition at 0.01 µM: 10 nM compound. On the procedure: as §1, §2

In data set [4] the target is recombinant MMP-9 (Homo sapiens, UniProt P14780). The data set is described as follows: MMP compound screening, recombinant MMP-9 (SensoLyte 390 Generic MMP Activity Kit). The data set is classed as biochemical. As to conditions: for inhibition at 0.01 µM: 10 nM compound. On the procedure: as §1, §2
A short description of data set [5]: Biodistribution of M005: tumor and tissue fluorescence scans. In kind it is in vivo, mouse. As to conditions: 4 h uptake time, Cy5 channel. The method, then: FIGS. 3-5 are mouse scans before and 4 hours after […] injection.
The test system of data set [6] is MMP. The data set is described as follows: MMP inhibition, general statement. In kind it is biochemical. The method, then:
as §1, §2

Where [7] appears, read: read-out: inhibition of MMP-9 activity, % of total activity.
The mark [8] stands for this setting: read-out: inhibition of MMP-2 activity, % of total activity.

Sequence of recombinant MMP-8 (P22894 101-467, species assumed): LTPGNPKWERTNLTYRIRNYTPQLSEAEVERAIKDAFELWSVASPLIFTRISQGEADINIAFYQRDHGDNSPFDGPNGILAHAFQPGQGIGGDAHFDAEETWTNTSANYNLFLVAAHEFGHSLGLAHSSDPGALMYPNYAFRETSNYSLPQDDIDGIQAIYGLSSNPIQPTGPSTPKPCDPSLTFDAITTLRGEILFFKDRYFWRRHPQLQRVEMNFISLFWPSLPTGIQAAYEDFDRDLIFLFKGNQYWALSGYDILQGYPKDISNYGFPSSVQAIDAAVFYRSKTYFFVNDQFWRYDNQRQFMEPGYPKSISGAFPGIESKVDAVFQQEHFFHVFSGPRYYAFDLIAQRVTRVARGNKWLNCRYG
Sequence of recombinant MMP-9 (P14780 107-707 limits assumed, species assumed): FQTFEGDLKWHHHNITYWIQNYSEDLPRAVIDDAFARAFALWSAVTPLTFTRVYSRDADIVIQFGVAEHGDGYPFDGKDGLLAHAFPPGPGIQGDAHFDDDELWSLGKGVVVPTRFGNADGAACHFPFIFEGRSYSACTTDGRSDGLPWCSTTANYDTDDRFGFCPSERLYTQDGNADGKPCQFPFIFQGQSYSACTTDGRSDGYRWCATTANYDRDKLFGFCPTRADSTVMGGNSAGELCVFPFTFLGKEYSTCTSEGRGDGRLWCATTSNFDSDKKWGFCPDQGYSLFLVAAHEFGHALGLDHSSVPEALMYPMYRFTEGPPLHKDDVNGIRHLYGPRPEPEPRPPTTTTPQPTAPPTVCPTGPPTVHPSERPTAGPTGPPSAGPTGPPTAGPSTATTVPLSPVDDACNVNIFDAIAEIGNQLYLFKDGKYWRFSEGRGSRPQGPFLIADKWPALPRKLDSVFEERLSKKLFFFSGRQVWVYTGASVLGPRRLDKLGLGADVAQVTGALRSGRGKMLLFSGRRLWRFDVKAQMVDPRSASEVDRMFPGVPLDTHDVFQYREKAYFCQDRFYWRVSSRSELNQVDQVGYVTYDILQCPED

For `COc1ccc(-c2cn(CCN([C@@H](C(=O)NO)C(C)C)S(=O)(=O)c3ccc(OC)cc3)nn2)cc1` [M001], the inhibition (commonly the change of the read-out against control, counted positive when it falls) at 0.1 µM in data set [1] was found to be 92%; in data set [2], 99%.

Consider `CCN1\C(=C/C=C/C=C/C2=[N+](CCCCCC(=O)NCCOCCOCCOCCn3cc(CN([C@@H](C(=O)NO)C(C)C)S(=O)(=O)c4ccc(OC)cc4)nn3)c3ccc4c(S(=O)(=O)O)cc(S(=O)(=O)[O-])cc4c3C2(C)C)C(C)(C)c2c1ccc1c(S(=O)(=O)O)cc(S(=O)(=O)O)cc21` [M003], for which the inhibition at 0.1 µM in data set [1] and in data set [2] was 97% in each case. Further, the IC50 (commonly the concentration that gives 50% inhibition) in data set [3] was determined as 5.2 nM.

As to `COc1ccc(S(=O)(=O)N(Cc2cn(CCOCCOCCOCCNC(=O)CCCCC[N+]3=C(/C=C/C=C/C=C4\N(C)c5ccc6ccccc6c5C4(C)C)C(C)(C)c4c3ccc3ccccc43)nn2)[C@@H](C(=O)NO)C(C)C)cc1` [M004], the inhibition at 0.1 µM worked out at 83% in data set [1] and 91% in data set [2]. Besides, the IC50 in data set [3] is 25 nM.

Consider `CCN1C(=CC=CC=CC2=[N+](CCCCCC(=O)NCCCCC(NC(=O)Cn3cc(CCCF)nn3)C(=O)NCCOCCOCCOCCn3cc(CN(C(C(=O)NO)C(C)C)S(=O)(=O)c4ccc(OC)cc4)nn3)c3ccc4c(S(=O)(=O)O)cc(S(=O)(=O)[O-])cc4c3C2(C)C)C(C)(C)c2c1ccc1c(S(=O)(=O)O)cc(S(=O)(=O)O)cc21` (centres unmarked) [M005], for which the IC50 in data set [4] (2 nM enzyme, 30 min pre-incubation at 37° C.) turned out to be 2.1 nM; in data set [3], 2 nM. The “uptake in tumor and tissue (fluorescence)” value in data set [5] (with and without tracer injection) is “uptake above background fluorescence of tissue”. Moreover, the “uptake into the brain” value in data set [5] (brain used as background tissue) is reported as “no uptake of the tracer into the brain”.

Consider `COc1ccc(S(=O)(=O)N(Cc2cn(CCOCCn3cc(CN([C@@H](C(=O)NO)C(C)C)S(=O)(=O)c4ccc(OC)cc4)nn3)nn2)[C@H](C(=O)NO)C(C)C)cc1` [M007], for which the inhibition at 0.01 µM was found to be 89% in data set [4] (setting [7]), 94% in data set [1], 96% in data set [2] and 64% in data set [3] (setting [8]). The inhibition at 0.1 µM in data set [4] (100 nM (0.1 uM) compound, read-out: inhibition of MMP-9 activity, % of total activity) is 100%; in data set [1], 100%; in data set [2], 99%; in data set [3] (100 nM (0.1 uM) compound, read-out: inhibition of MMP-2 activity, % of total activity), 95%. In addition, the “MMP inhibition (in words)” value in data set [6] is recorded as “good MMP inhibition”.

In the case of `COc1ccc(S(=O)(=O)N(Cc2cn(CCOCCn3cc(CCCF)nn3)nn2)[C@@H](C(=O)NO)C(C)C)cc1` [M008], the inhibition at 0.01 µM in data set [4] (setting [7]) turned out to be 78%; in data set [1], 95%; in data set [2], 82%; in data set [3] (setting [8]), 82%.

For `COc1ccc(S(=O)(=O)N(Cc2cn(CCOCCOCCOCCNC(=O)CCC(NC(=O)Cn3cc(CCCF)nn3)C(=O)NCCOCCOCCOCCn3cc(CN([C@@H](C(=O)NO)C(C)C)S(=O)(=O)c4ccc(OC)cc4)nn3)nn2)[C@@H](C(=O)NO)C(C)C)cc1` (some centres unmarked) [M009], in data set [4] (concentration not given), the “inhibition of MMP-9 activity, % of total activity” value turned out to be 48%. Moreover, the inhibition at 0.01 µM in data set [1] came out at 46%; in data set [2], 64%; in data set [3] (setting [8]) it was 59%.

For `COc1ccc(S(=O)(=O)N(Cc2cn(CCOCCOCCOCCNC(=O)CCC(NC(=O)Cn3cc(CCCF)nn3)C(=O)NCCOCCOCCOCCn3cc(CN([C@@H](C(=O)NOC(C)(C)C)C(C)C)S(=O)(=O)c4ccc(OC)cc4)nn3)nn2)[C@@H](C(=O)NO)C(C)C)cc1` (some centres unmarked) [M010], the inhibition at 0.01 µM in data set [4] (setting [7]) came to 2%; in data set [1] it was 13%; in data set [2] it was 10%; in data set [3] (setting [8]), 28%.

On to `COc1ccc(S(=O)(=O)N(Cc2cn(CCOCCNC(=O)c3cc(C(=O)NCCOCCn4cc(CN([C@@H](C(=O)NO)C(C)C)S(=O)(=O)c5ccc(OC)cc5)nn4)cc(-n4cc(CCCF)nn4)c3)nn2)[C@H](C(=O)NO)C(C)C)cc1` [M011], for which the inhibition at 0.01 µM in data set [4] (setting [7]) came out at 55%; in data set [1], 57%; in data set [2], 75%; in data set [3] (setting [8]), 50%.

On to `COc1ccc(S(=O)(=O)N(Cc2cn(CCOCCNC(=O)c3cc(C(=O)O)cc(-n4cc(CCCF)nn4)c3)nn2)[C@@H](C(=O)NO)C(C)C)cc1` [M013], for which the inhibition at 0.01 µM in data set [4] (setting [7]) turned out to be 67%; in data set [1], 84%; in data set [2], 79%; in data set [3] (setting [8]), 66%.
